Consider seven compounds from PubChem BioAssay (NCI).

Holding throughout (assay): inhibition of tumour cell growth, NCI panel, 48 h
Assay [1] concerns DU-145 prostate.
Assay [2] has as its system HCC-2998 colon.
Assay [3] relates to HOP-92 NSCLC.
In assay [4] the test system is HS 578T breast.
Assay [5] deals with HT29 colon.
Assay [6] has as its system K-562 leukemia.
The subject of assay [7] is MCF7 breast.
Assay [8] has as its system MDA-MB-231 breast.
Assay [9] relates to OVCAR-3 ovarian.
The test system of assay [10] is OVCAR-5 ovarian.
Assay [11] concerns OVCAR-8 ovarian.
Assay [12] relates to PC-3 prostate.
Assay [13] deals with SF-268 CNS.
The test system of assay [14] is SF-295 CNS.
Assay [15] concerns SK-MEL-28 melanoma.
Assay [16] relates to SK-MEL-5 melanoma.
Assay [17] concerns SN12C renal.
In assay [18] the test system is T-47D breast.
The test system of assay [19] is UACC-257 melanoma.
Assay [20] deals with SK-MEL-2 melanoma.

The structures appear in SMILES notation.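 Growth conditions: 96-well plates. Treatment: test compound, 48 hours, 5 concentrations. Analysis: linear interpolation between bracketing concentrations; unreached endpoints set to highest concentration. TGI denotes the concentration required for complete inhibition of growth.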

As to `CCOC(=O)c1nc2ccc(C(F)(F)F)cc2nc1Nc1ccc(OC)c(OC)c1`, the TGI in assay [1], in [2], in [3], in assay [4], in [5] and in assay [6] was more than 100 µM throughout. In addition, the TGI in assay [7], in [8], in [9], in assay [10], in [11] and in [12] was more than 100 µM each time. Also, the TGI in assay [13], in assay [14], in [15], in assay [16], in assay [17] and in [18] was more than 100 µM each time. The TGI in [19] was more than 100 µM.

As for `CC(C)=CCC/C(C)=C/CC/C(C)=C/CC/C(C=O)=C/CC/C(C)=C\CC/C(C)=C/CC/C(C)=C/CC/C(C)=C/CC1=CC(=O)C=CC1=O`, the TGI in assay [1], in assay [2], in assay [3], in assay [4], in [6] and in assay [7] was more than 100 µM in each case. In addition, the TGI in [8], in [9], in assay [10], in assay [11], in assay [12] and in [13] was more than 100 µM throughout. Moreover, the TGI in [14] is more than 100 µM; in [20] it was more than 100 µM; in [15] it was more than 100 µM; in assay [16], more than 100 µM; in assay [17] it was more than 100 µM; in [18], 69.4 µM. In assay [19], this compound registered a TGI of more than 100 µM.

Regarding `O=c1[nH][nH]c(=S)c(=O)[nH]1`, the TGI in assay [1], in assay [3], in assay [4], in [5], in [6] and in [7] was more than 100 µM throughout. The TGI in assay [8], in [9], in assay [10], in assay [11], in assay [12] and in assay [13] was more than 100 µM each time. Moreover, the TGI in assay [14], in assay [20], in assay [15], in assay [16], in assay [17] and in assay [18] was more than 100 µM throughout. The compound further yielded a TGI in [19] of more than 100 µM.

In the case of `Nc1nc(Cl)cc(NCC2(CO)CCC(OCc3ccccc3)C2)n1` (configuration not stated), the TGI in [1] is more than 100 µM; in [3] it was 37 µM; in assay [4], 43.9 µM; in assay [5] it was 34 µM; in [6], more than 100 µM; in [7], 89.1 µM. For the same compound, the TGI is 42.8 µM in [8]; more than 100 µM in assay [9]; more than 100 µM in [10]; more than 100 µM in [11]; 33 µM in assay [12]; more than 100 µM in assay [13]. Further, the TGI in assay [14] was more than 100 µM; in [20], 77.3 µM; in assay [15] it was more than 100 µM; in assay [16] it was 18.8 µM; in assay [17], 93 µM; in assay [18], 52.7 µM. Further, the TGI in [19] is 45.1 µM.

As to `CC(C)[C@H](NC(=O)[C@@H](O)[C@H](N)Cc1ccccc1)C(=O)N[C@@H](Cc1ccccc1)C(=O)O`, the TGI in assay [1], in assay [2], in assay [3], in assay [4], in [6] and in assay [7] was more than 100 µM in each case. In addition, the TGI in [8], in assay [9], in [10], in assay [11], in [12] and in [13] was more than 100 µM in each case. The TGI in [14], in assay [20], in assay [15], in [16], in assay [17] and in assay [18] was more than 100 µM in each case. Moreover, the TGI in [19] was more than 100 µM.

`CC(C)(C)OC(=O)N1C(=O)OC[C@@H]2C=C[C@@H]21`: the TGI in assay [1], in assay [3], in assay [4], in assay [5], in [7] and in assay [8] was more than 100 µM throughout. For the same compound, the TGI in assay [9], in [10], in assay [11], in [12], in assay [13] and in assay [14] was more than 100 µM throughout. In addition, the TGI in assay [20], in assay [15], in assay [16], in assay [17], in [18] and in assay [19] was more than 100 µM in each case.

Consider `CC1OC2OC3C(OCC(O)C3O)OC(=O)[C@]34CCC(C)(C)CC3C3=CCC5[C@@]6(C)C[C@H](O)[C@H](OC7OC(CO)C(O)C(O)C7OC7OC(COC(=O)CC(C)(O)CC(=O)OC1C(O)C2O)C(O)C(O)C7O)[C@@](C)(CO)C6CC[C@@]5(C)[C@]3(C)CC4` (some centres not stated), for which the TGI came to 3.02 µM in assay [1]; 2.63 µM in assay [2]; 2.94 µM in assay [3]; 3.54 µM in assay [4]; 3.18 µM in [5]; 15.2 µM in assay [7]. Besides, the TGI worked out at 3.11 µM in assay [8]; 3.15 µM in assay [9]; 2.85 µM in assay [10]; 3.1 µM in [11]; 2.56 µM in assay [12]; 2.97 µM in assay [13]. Besides, the TGI in assay [14] amounted to 3.1 µM; in assay [20], 2.85 µM; in assay [15] it was 2.79 µM; in [16], 2.34 µM; in assay [17], 4.37 µM; in assay [18], 7.23 µM. The TGI in [19] is 2.64 µM.
